How the values were obtained:
[1] = tested on: Rattus norvegicus; assay: Anti-hypertensive activity in iv dosed Wistar rat assessed as decrease in blood pressure up to 180 mins; type: functional, organism-based
[2] = tested on: Rattus norvegicus; assay: Anti-hypertensive activity in Wistar rat assessed as systolic blood pressure at 10 mg/kg, iv after 150 mins (reference value: 110 to 124.6 mmHg); type: functional
[3] = tested on: Mus musculus; assay: Acute toxicity in Swiss mouse assessed as serum creatinine level up to 2000 mg/kg, po measured on day 14 post dose (reference value: 0.418 +/- 0.0259 mg/dl); type: organism-based; settings: in vivo
[4] = tested on: Rattus norvegicus; assay: Anti-hypertensive activity in Wistar rat assessed as diastolic blood pressure at 10 mg/kg, iv after 120 mins (reference value: 77.15 to 94.4 mmHg); type: functional
[5] = tested on: Rattus norvegicus; assay: Anti-hypertensive activity in Wistar rat assessed as systolic blood pressure at 10 mg/kg, iv after 30 mins (reference value: 110 to 124.6 mmHg); type: functional
[6] = tested on: Mus musculus; assay: Acute toxicity in Swiss mouse assessed as basophil level up to 2000 mg/kg, po measured on day 14 post dose (reference value: 0.1%); type: organism-based; settings: in vivo
[7] = tested on: Mus musculus; assay: Acute toxicity in Swiss mouse assessed as change in body weight up to 2000 mg/kg, po measured once in a week up to 13 days post dose; type: organism-based; settings: in vivo, 312 h
[8] = tested on: Mus musculus; assay: Acute toxicity in Swiss mouse assessed as cholesterol level in serum up to 2000 mg/kg, po measured on day 14 post dose (reference value: […]); type: organism-based; settings: in vivo
[9] = tested on: Rattus norvegicus; assay: Anti-hypertensive activity in Wistar rat assessed as diastolic blood pressure at 10 mg/kg, iv after 30 mins (reference value: 77.15 to 94.4 mmHg); type: functional
[10] = tested on: Mus musculus; assay: Acute toxicity in Swiss mouse assessed as serum urea level up to 2000 mg/kg, po measured on day 14 post dose (reference value: 55.157 +/- 2.769 mg/dl); type: organism-based; settings: in vivo
[11] = tested on: Rattus norvegicus; assay: Anti-hypertensive activity in Wistar rat assessed as diastolic blood pressure at 10 mg/kg, iv after 15 mins (reference value: 77.15 to 94.4 mmHg); type: functional
[12] = tested on: Mus musculus; assay: Acute toxicity in Swiss mouse assessed as lymphocytes level up to 2000 mg/kg, po measured on day 14 post dose (reference value: 79.433%); type: organism-based; settings: in vivo
[13] = tested on: Mus musculus; assay: Acute toxicity in Swiss mouse assessed as WBC count up to 2000 mg/kg, po measured on day 14 post dose (reference value: 8.35 +/- 4.53 10^3/microL); type: organism-based; settings: in vivo
[14] = tested on: Mus musculus; assay: Acute toxicity in Swiss mouse assessed as ALT level in serum up to 2000 mg/kg, po measured on day 14 post dose (reference value: 49.87 +/- 3.277 IU/L); type: organism-based; settings: in vivo
[15] = tested on: Mus musculus; assay: Acute toxicity in Swiss mouse assessed as serum glucose level up to 2000 mg/kg, po measured on day 14 post dose (reference value: 105.78 +/- 5.217 mg/dl); type: organism-based; settings: in vivo
[16] = tested on: Mus musculus; assay: Acute toxicity in Swiss mouse assessed as serum triglyceride level up to 2000 mg/kg, po measured on day 14 post dose (reference value: […]); type: organism-based; settings: in vivo
[17] = tested on: Mus musculus; assay: Acute toxicity in Swiss mouse assessed as AST level in serum up to 2000 mg/kg, po measured on day 14 post dose (reference value: 162.53 +/- 5.455 IU/L); type: organism-based; settings: in vivo
[18] = tested on: Mus musculus; assay: Acute toxicity in Swiss mouse assessed as total protein level in serum up to 2000 mg/kg, po measured on day 14 post dose (reference value: 4.844 +/- 0.222 g/dl); type: organism-based; settings: in vivo
[19] = tested on: Mus musculus; assay: Acute toxicity in Swiss mouse assessed as mortality up to 2000 mg/kg, po measured up to 13 days post dose; type: organism-based; settings: in vivo, 312 h
[20] = tested on: Mus musculus; assay: Acute toxicity in Swiss mouse assessed as change in general appearance up to 2000 mg/kg, po measured up to 13 days post dose; type: organism-based; settings: in vivo, 312 h
[21] = tested on: Mus musculus; assay: Acute toxicity in Swiss mouse assessed as platelet level up to 2000 mg/kg, po measured on day 14 post dose (reference value: 1542.71 +/- 474.34 10^3/microL); type: organism-based; settings: in vivo
[22] = tested on: Mus musculus; assay: Acute toxicity in Swiss mouse assessed as monocytes level up to 2000 mg/kg, po measured on day 14 post dose (reference value: 3.66%); type: organism-based; settings: in vivo
[23] = tested on: Rattus norvegicus; assay: Anti-hypertensive activity in Wistar rat assessed as diastolic blood pressure at 10 mg/kg, iv after 60 mins (reference value: 77.15 to 94.4 mmHg); type: functional
[24] = tested on: Rattus norvegicus; assay: Anti-hypertensive activity in Wistar rat assessed as systolic blood pressure at 10 mg/kg, iv after 5 mins (reference value: 110 to 124.6 mmHg); type: functional
[25] = tested on: Mus musculus; assay: Acute toxicity in Swiss mouse assessed as effect on water consumption up to 2000 mg/kg, po measured up to 13 days post dose; type: organism-based; settings: in vivo, 312 h
[26] = tested on: Mus musculus; assay: Acute toxicity in Swiss mouse assessed as neutrophil level up to 2000 mg/kg, po measured on day 14 post dose (reference value: 14.56%); type: organism-based; settings: in vivo
[27] = tested on: Rattus norvegicus; assay: Anti-hypertensive activity in Wistar rat assessed as systolic blood pressure at 10 mg/kg, iv after 120 mins (reference value: 110 to 124.6 mmHg); type: functional
[28] = tested on: Mus musculus; assay: Acute toxicity in Swiss mouse assessed as hematocrit up to 2000 mg/kg, po measured on day 14 post dose (reference value: 40.114 +/- 14.74%); type: organism-based; settings: in vivo
[29] = tested on: Rattus norvegicus; assay: Anti-hypertensive activity in Wistar rat assessed as diastolic blood pressure at 10 mg/kg, iv after 5 mins (reference value: 77.15 to 94.4 mmHg); type: functional
[30] = tested on: Mus musculus; assay: Acute toxicity in Swiss mouse assessed as mean corpuscular hemoglobin up to 2000 mg/kg, po measured on day 14 post dose (reference value: 13.78 +/- 5.29 pg); type: organism-based; settings: in vivo
[31] = tested on: Mus musculus; assay: Acute toxicity in Swiss mouse assessed as effect on feed up to 2000 mg/kg, po measured up to 13 days post dose; type: organism-based; settings: in vivo, 312 h
[32] = tested on: Mus musculus; assay: Acute toxicity in Swiss mouse assessed as hemoglobin level up to 2000 mg/kg, po measured on day 14 post dose (reference value: 12.342 +/- 4.42 g/dl); type: organism-based; settings: in vivo
[33] = tested on: Rattus norvegicus; assay: Anti-hypertensive activity in Wistar rat assessed as systolic blood pressure at 10 mg/kg, iv after 15 mins (reference value: 110 to 124.6 mmHg); type: functional
[34] = tested on: Mus musculus; assay: Acute toxicity in Swiss mouse assessed as RBC count up to 2000 mg/kg, po measured on day 14 post dose (reference value: 8.97 +/- 3.15 10^6/microL); type: organism-based; settings: in vivo
[35] = tested on: Rattus norvegicus; assay: Anti-hypertensive activity in Wistar rat assessed as systolic blood pressure at 10 mg/kg, iv after 180 mins (reference value: 110 to 124.6 mmHg); type: functional
[36] = tested on: Rattus norvegicus; assay: Anti-hypertensive activity in Wistar rat assessed as diastolic blood pressure at 10 mg/kg, iv after 180 mins (reference value: 77.15 to 94.4 mmHg); type: functional
[37] = tested on: Mus musculus; assay: Acute toxicity in Swiss mouse assessed as mean corpuscular volume up to 2000 mg/kg, po measured on day 14 post dose (reference value: 44.85 +/- 17.65 fL); type: organism-based; settings: in vivo
[38] = tested on: Rattus norvegicus; assay: Anti-hypertensive activity in Wistar rat assessed as diastolic blood pressure at 10 mg/kg, iv after 150 mins (reference value: 77.15 to 94.4 mmHg); type: functional
[39] = tested on: Mus musculus; assay: Acute toxicity in Swiss mouse assessed as eosinophil level up to 2000 mg/kg, po measured on day 14 post dose (reference value: 2.233%); type: organism-based; settings: in vivo
[40] = tested on: Rattus norvegicus; assay: Anti-hypertensive activity in Wistar rat assessed as systolic blood pressure at 10 mg/kg, iv after 60 mins (reference value: 110 to 124.6 mmHg); type: functional
[41] = tested on: Mus musculus; assay: Acute toxicity in Swiss mouse assessed as uric acid level in serum up to 2000 mg/kg, po measured on day 14 post dose (reference value: […]); type: organism-based; settings: in vivo

O=C(c1ccccc1Nc1ccncc1)N1CC[C@H](O)C1
Activity [1]: Dose-dependent effect | Activity [2]: 87.13 mmHg | Activity [3]: 0.435 mg/dL | Activity [4]: 69.81 mmHg | Activity [5]: 80.19 mmHg | Activity [6]: 0.0714% | Activity [7]: Non-Toxic | Activity [8]: 83 mg/dL | Activity [9]: 62.55 mmHg | Activity [10]: 54.885 mg/dL | Activity [11]: 64.33 mmHg | Activity [12]: 84.514% | Activity [13]: 10.185 ×10³ /uL | Activity [14]: 50.587 IU/L | Activity [15]: 111.51 mg/dL | Activity [16]: 89.6 mg/dL | Activity [17]: 145.84 IU/L | Activity [18]: 5.224 g/dL | Activity [19]: Non-Toxic | Activity [20]: Non-Toxic | Activity [21]: 1458.42 ×10³ /uL | Activity [22]: 3.128% | Activity [23]: 64.09 mmHg | Activity [24]: 88 mmHg | Activity [25]: Non-Toxic | Activity [26]: 8.828% | Activity [27]: 85.46 mmHg | Activity [28]: 40.1% | Activity [29]: 66.01 mmHg | Activity [30]: 13.77 pg | Activity [31]: Non-Toxic | Activity [32]: 13.342 g/dL | Activity [33]: 82.41 mmHg | Activity [34]: 9.684 ×10⁶ /uL | Activity [35]: 108.8 mmHg | Activity [36]: 79.06 mmHg | Activity [37]: 41.3 fL | Activity [38]: 73 mmHg | Activity [39]: 3.457% | Activity [40]: 79.29 mmHg | Activity [41]: 2.81 mg/dL

Reference: ChEMBL document CHEMBL3877319, “Synthesis of Ofornine mimics from natural product l-vasicine as anti-hypertensive agents” (Bioorg Med Chem, 2017)
